Reference: ChEMBL document CHEMBL3431459, “Roche carnitine palmitoyltransferase modulator screening data (supplementary data associated with the publication CHEMBL2216752)”
In brackets after ≈: the same amount, converted by molar mass.

Legend:
[1] = target: T1, Carnitine O-palmitoyltransferase 1, liver isoform (Rattus norvegicus, UniProt P32198); assay: SUPPLEMENTARY: Inhibition of Carnitine palmitoyltransferase 1, liver isoform
T1 sequence (P32198 whole entry): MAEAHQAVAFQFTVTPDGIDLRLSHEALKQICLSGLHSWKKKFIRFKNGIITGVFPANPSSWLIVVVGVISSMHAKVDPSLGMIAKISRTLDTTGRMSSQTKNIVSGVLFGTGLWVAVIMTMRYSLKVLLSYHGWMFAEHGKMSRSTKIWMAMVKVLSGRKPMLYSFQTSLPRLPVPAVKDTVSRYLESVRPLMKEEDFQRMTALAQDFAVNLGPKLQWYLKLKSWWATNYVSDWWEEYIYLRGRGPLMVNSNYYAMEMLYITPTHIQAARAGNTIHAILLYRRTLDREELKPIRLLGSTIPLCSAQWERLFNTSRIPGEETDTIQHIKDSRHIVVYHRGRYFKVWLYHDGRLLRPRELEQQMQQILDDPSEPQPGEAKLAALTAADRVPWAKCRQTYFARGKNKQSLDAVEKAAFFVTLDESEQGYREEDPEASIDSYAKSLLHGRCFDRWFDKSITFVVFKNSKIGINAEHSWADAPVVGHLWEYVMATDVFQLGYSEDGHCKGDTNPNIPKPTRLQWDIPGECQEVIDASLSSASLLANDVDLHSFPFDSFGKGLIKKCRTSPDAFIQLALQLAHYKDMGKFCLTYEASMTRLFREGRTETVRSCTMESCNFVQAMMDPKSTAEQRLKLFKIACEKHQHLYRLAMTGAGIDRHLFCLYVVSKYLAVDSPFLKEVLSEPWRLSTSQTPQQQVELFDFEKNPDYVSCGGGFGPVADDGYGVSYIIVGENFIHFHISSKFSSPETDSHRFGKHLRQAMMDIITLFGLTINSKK

[2] = SUPPLEMENTARY: Lipophilicity (log D) Determination by high-throughput shake-flask; type: physicochemical; settings: octanol/water
[3] = SUPPLEMENTARY: PAMPA permeability assay; type: physicochemical; settings: read-out: Permeability
[4] = SUPPLEMENTARY: Lyophilisation Solubility Assay (LYSA); type: physicochemical; settings: read-out: Kinetic_solubility
[5] = target: T2, Carnitine O-palmitoyltransferase 2, mitochondrial (Rattus norvegicus, UniProt P18886); assay: (§1) SUPPLEMENTARY: Inhibition of Carnitine palmitoyltransferase 2
T2 sequence (P18886 whole entry): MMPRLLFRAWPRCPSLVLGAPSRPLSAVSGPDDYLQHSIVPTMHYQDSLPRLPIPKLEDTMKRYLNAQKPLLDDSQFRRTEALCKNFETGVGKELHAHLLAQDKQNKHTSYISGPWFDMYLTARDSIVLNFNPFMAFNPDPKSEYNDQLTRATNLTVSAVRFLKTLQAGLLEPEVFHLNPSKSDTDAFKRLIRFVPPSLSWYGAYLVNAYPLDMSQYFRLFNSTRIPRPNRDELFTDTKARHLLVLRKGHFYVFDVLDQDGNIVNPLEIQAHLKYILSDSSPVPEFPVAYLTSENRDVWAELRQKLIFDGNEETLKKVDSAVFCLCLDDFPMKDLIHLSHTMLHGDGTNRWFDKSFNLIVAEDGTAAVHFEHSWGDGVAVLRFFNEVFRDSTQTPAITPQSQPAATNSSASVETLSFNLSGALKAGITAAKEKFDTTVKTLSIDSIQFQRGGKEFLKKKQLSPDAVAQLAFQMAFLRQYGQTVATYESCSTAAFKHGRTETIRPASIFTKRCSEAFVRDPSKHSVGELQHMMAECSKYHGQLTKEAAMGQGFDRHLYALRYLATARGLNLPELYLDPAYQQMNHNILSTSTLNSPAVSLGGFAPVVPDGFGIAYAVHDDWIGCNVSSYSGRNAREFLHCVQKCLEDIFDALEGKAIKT

[6] = target: T3, Carnitine O-palmitoyltransferase 2, mitochondrial (Homo sapiens, UniProt P23786); assay: as §1
T3 sequence (P23786 whole entry): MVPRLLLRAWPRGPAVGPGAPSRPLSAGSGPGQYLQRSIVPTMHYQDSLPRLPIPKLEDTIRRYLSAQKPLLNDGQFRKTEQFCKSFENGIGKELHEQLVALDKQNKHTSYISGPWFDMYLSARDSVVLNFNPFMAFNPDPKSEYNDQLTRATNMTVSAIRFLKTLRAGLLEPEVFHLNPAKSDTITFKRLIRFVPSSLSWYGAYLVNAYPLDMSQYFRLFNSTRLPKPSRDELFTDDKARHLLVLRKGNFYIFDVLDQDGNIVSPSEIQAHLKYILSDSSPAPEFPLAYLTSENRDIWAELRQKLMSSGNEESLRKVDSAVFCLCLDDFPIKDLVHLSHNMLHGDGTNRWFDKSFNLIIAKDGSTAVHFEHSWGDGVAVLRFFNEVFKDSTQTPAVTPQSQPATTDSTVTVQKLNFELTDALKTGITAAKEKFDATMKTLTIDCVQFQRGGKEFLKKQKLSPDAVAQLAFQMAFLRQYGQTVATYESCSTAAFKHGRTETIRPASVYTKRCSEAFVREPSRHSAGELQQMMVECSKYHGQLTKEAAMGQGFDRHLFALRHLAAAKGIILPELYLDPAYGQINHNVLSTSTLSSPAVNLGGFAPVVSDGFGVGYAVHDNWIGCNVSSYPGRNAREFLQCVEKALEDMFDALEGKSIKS

[7] = target: T4, Carnitine O-palmitoyltransferase 1, muscle isoform (Homo sapiens, UniProt Q92523); assay: SUPPLEMENTARY: Inhibition of Carnitine palmitoyltransferase 1, muscle isoform; set-up: species or system Muscle tissue
T4 sequence (Q92523 whole entry): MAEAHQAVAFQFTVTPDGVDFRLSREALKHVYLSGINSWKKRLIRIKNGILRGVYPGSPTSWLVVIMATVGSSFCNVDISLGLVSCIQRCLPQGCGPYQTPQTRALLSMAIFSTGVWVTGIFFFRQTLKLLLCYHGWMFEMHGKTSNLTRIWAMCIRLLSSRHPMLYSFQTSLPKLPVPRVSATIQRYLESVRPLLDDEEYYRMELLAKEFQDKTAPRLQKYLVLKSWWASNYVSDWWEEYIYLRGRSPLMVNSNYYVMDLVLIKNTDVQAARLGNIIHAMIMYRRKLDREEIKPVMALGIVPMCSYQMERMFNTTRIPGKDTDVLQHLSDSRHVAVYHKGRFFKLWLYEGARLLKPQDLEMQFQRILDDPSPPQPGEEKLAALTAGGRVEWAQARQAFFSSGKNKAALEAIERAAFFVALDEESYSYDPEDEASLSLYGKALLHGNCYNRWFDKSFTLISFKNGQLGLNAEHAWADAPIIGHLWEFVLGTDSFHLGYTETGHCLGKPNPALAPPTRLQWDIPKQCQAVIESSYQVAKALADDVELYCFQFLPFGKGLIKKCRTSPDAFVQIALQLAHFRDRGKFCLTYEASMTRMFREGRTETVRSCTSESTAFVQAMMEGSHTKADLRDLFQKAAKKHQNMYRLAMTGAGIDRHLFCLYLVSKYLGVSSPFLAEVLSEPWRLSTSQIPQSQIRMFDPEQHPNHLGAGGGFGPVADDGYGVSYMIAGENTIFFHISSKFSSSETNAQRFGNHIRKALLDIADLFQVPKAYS

| IC50 [1] [µM] | logD [2] | Papp [3] [×10⁻⁶ cm/s] | solubility kinetic [4] [µg/mL] | IC50 [5] [µM] | IC50 [6] [µM] | IC50 [7] [µM] | Compound |
| --- | --- | --- | --- | --- | --- | --- | --- |
| 0.985 | > 3 | 1.31 | < 1 | > 100 | > 100 | > 100 | O=C(COc1ccccc1)N1CCCC[C@@H]1c1csc(-c2ccc(C(F)(F)F)nc2)n1 |
| 0.238 | 0.62 | 3.07 | 37 (≈ 71.8 µM) | > 100 | 98.4 | 0.447 | COc1ccc(Cl)cc1S(=O)(=O)N1CCc2c(C)cc(C(=O)Nc3ccc(CC(=O)O)cc3)cc21 |
| 0.0663 | 0.38 | 1.67 | 26 (≈ 51.5 µM) | 4.86 | 1.37 | 0.989 | COc1ccc(Cl)cc1S(=O)(=O)N1CCc2ccc(C(=O)Nc3ccc(C(=O)O)c(F)c3)cc21 |
| 0.245 | > 3 | 1.95 | < 1 | > 100 | 41.6 | > 100 | N#Cc1ccc(-c2csc([C@H]3CCCCN3C(=O)COc3ccccc3)n2)cc1 |
| 0.0798 | 0.48 | 3.65 | 20 (≈ 42.5 µM) | > 100 | > 100 | 4.5 | O=C(O)Cc1ccc(NC(=O)c2ccc3c(c2)N(S(=O)(=O)c2cccc(Cl)c2)CC3)cc1 |
| 0.265 | 2.95 | 3.84 | 39 (≈ 103 µM) | 31.6 | 8.32 | > 100 | O=C(COc1ccccc1)N1CCCC[C@@H]1c1nc(-c2ccncc2)cs1 |
| 0.214 | 3.15 | 3.8 | 37 (≈ 97.5 µM) | 32.8 | 16.7 | 71.5 | O=C(COc1ccccc1)N1CCCC[C@@H]1c1nc(-c2cccnc2)cs1 |
| 0.496 | 1.09 | 5.18 | > 563 | 42.1 | 10.6 | 29 | O=C(O)c1ccc(-c2csc([C@H]3CCCCN3C(=O)COc3ccccc3)n2)cc1 |
| 0.179 | 3.72 | 1.23 | 1 (≈ 2.3 µM) | > 100 | > 100 | > 100 | CC(=O)Nc1ccc(-c2nc([C@H]3CCCCN3C(=O)COc3ccccc3)cs2)cc1 |
| 0.0947 | 0.35 | 1.92 | 30 (≈ 59.2 µM) | 20.5 | 3.45 | 2.08 | COc1ccc(Cl)cc1S(=O)(=O)N1COc2ccc(C(=O)Nc3ccc(C(=O)O)c(F)c3)cc21 |
| 0.306 | 3.8 | 1.48 | < 1 | > 100 | > 100 | > 100 | O=C(COc1ccccc1)N1CCCC[C@@H]1c1nc(-c2ccccc2)cs1 |
| 0.529 | 0.92 | 2.35 | > 511 | > 100 | 23 | 95.9 | O=C(O)c1cccc(-c2nc([C@H]3CCCCN3C(=O)COc3ccccc3)cs2)c1 |
| 0.0605 | > 3 | 2.07 | 37 (≈ 94 µM) | 88.3 | 24.3 | 36 | Cc1ccc(-c2nc([C@H]3CCCCN3C(=O)COc3ccccc3)cs2)cn1 |
| 0.108 | > 3 | 4.83 | 18 (≈ 47.4 µM) | > 100 | > 100 | > 100 | O=C(COc1ccccc1)N1CCCC[C@@H]1c1csc(-c2ccccn2)n1 |
| 0.327 | > 3 | 2.11 | 1 (≈ 2.19 µM) | > 100 | 1.86 | 6.12 | CS(=O)(=O)c1ccc(-c2csc([C@H]3CCCCN3C(=O)COc3ccccc3)n2)cc1 |
| 0.108 | > 3 | 0.3 | 2 (≈ 4.88 µM) | > 100 | 58.9 | > 100 | COc1ccc(-c2nc([C@H]3CCCCN3C(=O)COc3ccccc3)cs2)cn1 |
| 0.159 | 1.06 | 5.06 | 344 (≈ 814 µM) | 78.6 | 31.8 | > 100 | O=C(O)c1cccc(-c2csc([C@H]3CCCCN3C(=O)COc3ccccc3)n2)c1 |
